Test results reported in US20210023029A1, “EDASALONEXENT DOSING REGIMEN FOR TREATING MUSCULAR DYSTROPHY” (Catabasis Pharmaceuticals, Inc., priority 2017, published 2021).

Columns and labels:
boys with DMD [1] = test: MoveDMD trial: safety and tolerability; assay type: in vivo, human
Experimental: The MoveDMD trial (see FIG. 10) was designed to evaluate efficacy, safety/tolerability, pharmacokinetics (PK), pharmacodynamics (PD), and dose response of edasalonexent. The first phase portion of the MoveDMD trial was a 1-week study to evaluate the safety, PK, and PD at 33 and 67 mg/kg/day, given in 2 divided doses, and 100 mg/kg/day given in 3 divided doses. The second phase and the open-label extension (OLE) portions of the MoveDMD trial enrolled boys ages 4 through 7 with DMD. Phase 2 was a 12-week placebo-controlled study with two cohorts given 33 mg/kg twice daily (BID; 67 mg/kg/day; n=10) or 33 mg/kg three times daily (TID; 100 mg/kg/day; n=10), and a placebo cohort (n=10). Patients in the OLE continued with either dose regimen of edasalonexent.

[2] = MoveDMD trial: systemic exposure and Ctrough in DMD patients; assay type: in vivo, human; details: for daily exposure level versus level effective in inhibiting NF-κB in the adult study: boys with DMD
Experimental: The MoveDMD trial (see FIG. 10) was designed to evaluate efficacy, safety/tolerability, pharmacokinetics (PK), pharmacodynamics (PD), and dose response of edasalonexent. The first phase portion of the MoveDMD trial was a 1-week study to evaluate the safety, PK, and PD at 33 and 67 mg/kg/day, given in 2 divided doses, and 100 mg/kg/day given in 3 divided doses.
The second phase and the open-label extension (OLE) portions of the MoveDMD trial enrolled boys ages 4 through 7 with DMD. Phase 2 was a 12-week placebo-controlled study with two cohorts given 33 mg/kg twice daily (BID; 67 mg/kg/day; n=10) or 33 mg/kg three times daily (TID; 100 mg/kg/day; n=10), and a placebo cohort (n=10). Patients in the OLE continued with either dose regimen of edasalonexent.
The ratios of all 24 transcripts within a patient were also averaged, and are shown in FIG. 13 using symbols which represent this average from each individual patient. This average was graphed against the average edasalonexent Ctrough values within each dose cohort (shown on the x-axis in ng/ml).

NF-κB = details: cited from earlier work
boys with DMD [3] = test: MoveDMD trial: MRI-T2 and MR spectroscopy fat fraction of leg muscles; assay type: in vivo, human
Source text: The MR transverse relaxation time constant assessed by MRI (MRI-T2; also referred to as bulk T2) is sensitive to several pathophysiological features of disease pathology in DMD, including muscle damage, inflammation, and fat infiltration and provides a method for monitoring disease pathology over a wide age range. Furthermore, the proportion of fat infiltration in the muscle (fat fraction), measured using the gold standard, proton MRS (^1H-MRS), or a 3-point Dixon imaging technique, is associated with disease progression and correlates with performance on functional tests. (Willcocks et al., (2016), ANN. NEUROL., 79(4):535-47; Barnard et al., (2018), PLoS ONE, 13(3):E0194283). These are non-invasive measures of disease progression in DMD that are elevated and increase with age; changes in these measures strongly correlate with changes in function and predict future loss of functional milestones. […] The MRI-T2 value was a composite of 5 lower leg muscles. Stabilization of MRI-T2 values is consistent with the concomitant slowing of DMD disease progression observed through the functional assessments discussed previously.

[4] = after 48 weeks receiving 100 mg/kg/day

CC/C=C\C/C=C\C/C=C\C/C=C\C/C=C\C/C=C\CCC(=O)NCCNC(=O)c1ccccc1O [edasalonexent, N-(2-[(4Z,7Z,10Z,13Z,16Z,19Z)-docosa-4,7,10,13,16,19-hexaenamido]ethyl)-2-hydroxybenzamide]
nature of the majority of adverse events (boys with DMD [1]; 100 mg/kg, study subjects): mild in nature and mostly gastrointestinal
safety findings (boys with DMD [1]; 100 mg/kg, study subjects): no adverse findings
tolerability (boys with DMD [1]; 100 mg/kg, study subjects): well tolerated
trends in hematology, chemistry, renal or adrenal function, calcium or phosphate levels (boys with DMD [1]; 100 mg/kg, study subjects): No adverse trends
side effects compared to the 133 mg/kg/day dosing regimen (boys with DMD [1]; 100 mg/kg/day versus 133 mg/kg/day (33/33/67 mg/kg)): fewer side effects
heart rate (boys with DMD [1]; study subjects over the 60 week study period): decreased toward age normative values
height and weight (boys with DMD [1]; study subjects over the treatment period, CDC Growth Chart percentiles): age appropriate increases
daily exposure level versus level effective in inhibiting NF-κB in the adult study ([2]; 67 mg/kg/day (33 mg/kg twice daily)): comparable
daily exposure level versus level effective in inhibiting NF-κB in the adult study ([2]; 100 mg/kg/day (33 mg/kg three times daily)): comparable
mean Ctrough level ([2]; 100 mg/kg/day compared to 33 and 67 mg/kg/day, after one week): highest Ctrough level
expression of NF-κB driven genes in whole blood (NF-κB; adult study, dose of approximately 100 mg/kg/day): changes in expression of NF-κB driven genes were observed
levels of the p65 subunit of NF-κB (NF-κB; healthy adult humans, compared to placebo or salicylate and omega-3 DHA as separate molecules): lowers levels of the p65 subunit of NF-κB
biomarkers of inflammation in whole blood (NF-κB; humans): decrease of biomarkers of inflammation
activated NF-κB pathways (NF-κB; phase 1 clinical program in adults (Donovan et al. 2017)): inhibited activated NF-κB pathways
safety and tolerability (NF-κB; phase 1 clinical program, three placebo-controlled studies in adults (Donovan et al. 2017)): safe and well-tolerated
annualized rate of change of MRI-T2 values (composite of 5 lower leg muscles) (boys with DMD [3]; 100 mg/kg/day treatment period (60 weeks) versus off-treatment period (36 weeks)): significantly improved
change in fat fraction, soleus (MR spectroscopy) (boys with DMD [3]; [4]): 0.85%
change in fat fraction, vastus lateralis (MR spectroscopy) (boys with DMD [3]; [4]): 5.9%
